Here are results for 5 molecules from US20100144710A1, “Piperazine and Piperidine MGLUR5 Potentiators” (ASTRAZENECA AB, priority 2007, published 2010).

The target of the test is T1, human mGluR5d (Homo sapiens, UniProt P41594).
T1 construct: expressed in transfected cells
The experiment in a line: intracellular calcium [Ca2+]i mobilization (FLIPR) functional assay in cells expressing mGluR5. Format: cell-based. Particulars: potentiators of mGluR5; 'assays described herein', assay not specified (FLIPR or IP3 turnover). From the text:
The pharmacological properties of the compounds of the invention can be analyzed using standard assays for functional activity. Examples of glutamate receptor assays are well known in the art as described in for example Aramori et al., Neuron 8:757 (1992), Tanabe et al., Neuron 8:169 (1992), Miller et al., J. Neuroscience 15: 6103 (1995), Balazs, et al., J. Neurochemistry 69:151 (1997). The methodology described in these publications is incorporated herein by reference. Conveniently, the compounds of the invention can be studied by means of an assay that measures the mobilization of intracellular calcium, [Ca^2+]i in cells expressing mGluR5.
Intracellular calcium mobilization was measured by detecting changes in fluorescence of cells loaded with the fluorescent indicator fluo-3. Fluorescent signals were measured using the FLIPR system (Molecular Devices). A two addition experiment was used that could detect compounds that either activate or antagonize the receptor.
For FLIPR analysis, cells expressing human mGluR5d were seeded on collagen coated clear bottom 96-well plates with black sides and analysis of [Ca^2+]i mobilization was done 24 hours after seeding.
FLIPR experiments were performed using a laser setting of 0.800 W and a 0.4 second CCD camera shutter speed. Each FLIPR experiment was initiated with 160 μL of buffer present in each well of the cell plate. After each addition of the compound, the fluorescence signal was sampled 50 times at 1 second intervals followed by 3 samples at 5 second intervals. Responses were measured as the peak height of the response within the sample period.
EC50 and IC50 determinations were made from data obtained from 8-point concentration response curves (CRC) performed in duplicate. Agonist CRC were generated by scaling all responses to the maximal response observed for the plate. Antagonist block of the agonist challenge was normalized to the average response of the agonist challenge in 14 control wells on the same plate.
For orientation: A change in cytosolic calcium serves as a functional read-out for many receptors and channels.

T1 sequence (P41594 21-942 isoform P41594-3 limits assumed): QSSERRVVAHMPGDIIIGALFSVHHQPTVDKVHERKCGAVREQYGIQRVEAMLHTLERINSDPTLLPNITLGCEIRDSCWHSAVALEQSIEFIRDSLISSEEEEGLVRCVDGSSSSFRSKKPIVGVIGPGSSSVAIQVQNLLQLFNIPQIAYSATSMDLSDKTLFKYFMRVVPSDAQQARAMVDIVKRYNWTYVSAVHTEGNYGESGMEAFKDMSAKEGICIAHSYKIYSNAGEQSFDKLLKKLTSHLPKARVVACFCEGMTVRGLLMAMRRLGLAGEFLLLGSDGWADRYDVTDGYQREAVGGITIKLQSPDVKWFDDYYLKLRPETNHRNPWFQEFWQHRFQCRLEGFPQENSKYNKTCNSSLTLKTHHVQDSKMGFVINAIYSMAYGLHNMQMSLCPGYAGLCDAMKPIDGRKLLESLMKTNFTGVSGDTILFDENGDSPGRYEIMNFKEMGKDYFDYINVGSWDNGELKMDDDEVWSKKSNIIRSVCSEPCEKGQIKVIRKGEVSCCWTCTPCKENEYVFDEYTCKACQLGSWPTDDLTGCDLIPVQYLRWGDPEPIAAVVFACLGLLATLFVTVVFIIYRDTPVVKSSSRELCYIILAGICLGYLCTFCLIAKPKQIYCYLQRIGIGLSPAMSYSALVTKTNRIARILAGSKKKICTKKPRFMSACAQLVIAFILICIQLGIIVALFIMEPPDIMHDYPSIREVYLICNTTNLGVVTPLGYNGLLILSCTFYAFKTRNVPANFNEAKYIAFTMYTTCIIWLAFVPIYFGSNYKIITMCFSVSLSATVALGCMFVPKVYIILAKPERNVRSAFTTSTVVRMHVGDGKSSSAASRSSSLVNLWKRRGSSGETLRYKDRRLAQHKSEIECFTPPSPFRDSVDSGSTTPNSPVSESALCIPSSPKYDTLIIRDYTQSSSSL

For the molecule `CCCCOc1ccc(CC(=O)N2CCN(c3ncccc3C#N)CC2)cc1` [Compound 1, 2-{4-[2-(4-Butoxy-phenyl)-acetyl]-piperazin-l-yl}-nicotinonitrile], the EC50 turned out to be 5.1 µM.

`N#Cc1cccnc1N1CCN(C(=O)COc2ccccc2)CC1` [Compound 12, 2-[4-(2-Phenoxy-acetyl)-piperazin-1-yl]-nicotinonitrile]: the EC50 was 3.5 µM.

Turning to `CCCOc1ccc(CC(=O)N2CCN(c3ncccc3C#N)CC2)cc1` [Compound 16, 2-{4-[2-(4-Propoxy-phenyl)-acetyl]-piperazin-1-yl}-nicotinonitrile], the EC50 was 2.8 µM.

For the molecule `CCCCc1ccc(N(CC(=O)N2CCN(c3nccnc3C#N)CC2)S(C)(=O)=O)cc1` [Compound 44, N-(4-Butyl-phenyl)-N-{2-(3′-cyano-2,3,5,6-tetrahydro-[1,2]bipyrazinyl-4-yl)-2-oxo-ethyl]-methanesulfonamide], the EC50 worked out at 5.6 µM.

With `N#Cc1cccnc1N1CCN(C(=O)Cc2ccc(OCc3ccccn3)cc2)CC1` [Compound 45, 2-(4-{2-[4′-(Pyridin-2-ylmethoxy)-phenyl]-acetyl}-piperazin-1-yl)-nicotinonitrile], the EC50 was 3.4 µM.

As usually defined, the EC50 is the concentration needed to bring the measured effect to its halfway point.
